From patent US20100311714A1, “1H-IMIDAZO[4,5-c]QUINOLINONE COMPOUNDS” (priority 2009, published 2010)

tested on: PKB Ser473 phosphorylation in Rat1-myr-HA-p110 alpha cells; test: Reverse protein array, PKB Ser473 phosphorylation in Rat1-myr-HA-p110 alpha cells; type: cell-based; details: Rattus norvegicus, 0.5 h, 30 minutes compound incubation, read-out: p-PKB/IC50_alpha

Row | IC50 | Compound
1 | 0.0146 µM | CNc1ncc(-c2ccc3ncc4c(c3c2)n(-c2ccc(C(C)(C)O)nc2C)c(=O)n4C)cc1F [Example 31.1, 8-(5-Fluoro-6-methylamino-pyridin-3-yl)-1-[6-(1-hydroxy-1-methyl-ethyl)-2-methyl-pyridin-3-yl]-3-methyl-1,3-dihydro-imidazo[4,5-c]quinolin-2-one]
2 | 0.1 µM | COc1cc(-c2ccc3ncc4c(c3c2)n(-c2cccnc2C)c(=O)n4C)cnc1C(OC)OC [Example 2.27, 8-(6-Dimethoxymethyl-5-methoxy-pyridin-3-yl)-3-methyl-1-(2-methyl-pyridin-3-yl)-1,3-dihydro-imidazo[4,5-c]quinolin-2-one]
3 | 0.048 µM | CCOc1cc(-c2ccc3ncc4c(c3c2)n(-c2ccc(N3CCCC3)nc2C)c(=O)n4C)cnc1COC [Example 25.2, 8-(5-Ethoxy-6-methoxymethyl-pyridin-3-yl)-3-methyl-1-(2-methyl-6-pyrrolidin-1-yl-pyridin-3-yl)-1,3-dihydro-imidazo[4,5-c]quinolin-2-one]
4 | 0.019 µM | Cc1nc(C(F)(F)F)ccc1-n1c(=O)n(C)c2cnc3ccc(-c4cncc(C(C)(C)O)c4)cc3c21 [Example 33.1, 8-[5-(1-Hydroxy-1-methyl-ethyl)-pyridin-3-yl]-3-methyl-1-(2-methyl-6-trifluoromethyl-pyridin-3-yl)-1,3-dihydro-imidazo[4,5-c]quinolin-2-one]
5 | 0.0386 µM | Cc1ncccc1-n1c(=O)n(C)c2cnc3ccc(-c4ccc(CO)nc4)cc3c21 [Example 2.6, 8-(6-Hydroxymethyl-pyridin-3-yl)-3-methyl-1-(2-methyl-pyridin-3-yl)-1,3-dihydro-imidazo[4,5-c]quinolin-2-one]
6 | < 0.00457 µM | Cc1nc(N(C)CCO)ccc1-n1c(=O)n(C)c2cnc3ccc(-c4cnc(N)c(C(F)(F)F)c4)cc3c21 [Example 26.1, 8-(6-Amino-5-trifluoromethyl-pyridin-3-yl)-1-{6-[(2-hydroxy-ethyl)-methyl-amino]-2-methyl-pyridin-3-yl}-3-methyl-1,3-dihydro-imidazo[4,5-c]quinolin-2-one]
7 | 0.15 µM | CCOc1ccc(-c2ccc3ncc4c(c3c2)n(-c2ncccc2C)c(=O)n4C)cn1 [Example 3.6, 8-(6-Ethoxy-pyridin-3-yl)-3-methyl-1-(3-methyl-pyridin-2-yl)-1,3-dihydro-imidazo[4,5-c]quinolin-2-one]
8 | 0.0121 µM | Cc1nc(F)ccc1-n1c(=O)n(C)c2cnc3ccc(-c4cnc5c(ccn5C)c4)cc3c21 [Example 7.2, 1-(6-Fluoro-2-methyl-pyridin-3-yl)-3-methyl-8-(1-methyl-1H-pyrrolo[2,3-b]pyridin-5-yl)-1,3-dihydro-imidazo[4,5-c]quinolin-2-one]
9 | < 0.00457 µM | CCNc1cc(-c2ccc3ncc4c(c3c2)n(-c2cccnc2C)c(=O)n4C)cnc1CO [Example 2.31, 8-(5-Ethylamino-6-hydroxymethyl-pyridin-3-yl)-3-methyl-1-(2-methyl-pyridin-3-yl)-1,3-dihydro-imidazo[4,5-c]quinolin-2-one]
10 | 0.0184 µM | CCOc1ccc(-c2ccc3ncc4c(c3c2)n(-c2ccc(N3CCNCC3)nc2OC)c(=O)n4C)cn1 [Example 9.1, 8-(6-Ethoxy-pyridin-3-yl)-1-(2-methoxy-6-piperazin-1-yl-pyridin-3-yl)-3-methyl-1,3-dihydro-imidazo[4,5-c]quinolin-2-one]
11 | 0.0139 µM | Cc1nc(N2CCCC2)ccc1-n1c(=O)n(C)c2cnc3ccc(-c4cncc(C(C)(C)O)c4)cc3c21 [Example 25.3, 8-[5-(1-Hydroxy-1-methyl-ethyl)-pyridin-3-yl]-3-methyl-1-(2-methyl-6-pyrrolidin-1-yl-pyridin-3-yl)-1,3-dihydro-imidazo[4,5-c]quinolin-2-one]
12 | 0.0087 µM | Cc1ncccc1-n1c(=O)n(C)c2cnc3ccc(-c4cncc(N5CCC5)c4)cc3c21 [Example 2.29, 8-(5-Azetidin-1-yl-pyridin-3-yl)-3-methyl-1-(2-methyl-pyridin-3-yl)-1,3-dihydro-imidazo[4,5-c]quinolin-2-one]
13 | 0.008 µM | CNc1ncc(-c2ccc3ncc4c(c3c2)n(-c2ccc(N3CC(O)C3)nc2C)c(=O)n4C)cc1C(F)(F)F [Example 29.4, 1-[6-(3-Hydroxy-azetidin-1-yl)-2-methyl-pyridin-3-yl]-3-methyl-8-(6-methylamino-5-trifluoromethyl-pyridin-3-yl)-1,3-dihydro-imidazo[4,5-c]quinolin-2-one]
14 | 0.0115 µM | CNc1ccc(-c2ccc3ncc4c(c3c2)n(-c2cccnc2C)c(=O)n4C)cn1 [Example 2.13, 3-Methyl-8-(6-methylamino-pyridin-3-yl)-1-(2-methyl-pyridin-3-yl)-1,3-dihydro-imidazo[4,5-c]quinolin-2-one]
15 | 0.0057 µM | Cc1nc(N2CCC2)ccc1-n1c(=O)n(C)c2cnc3ccc(-c4cncc(C(C)(C)O)c4)cc3c21 [Example 23.3, 1-(6-Azetidin-1-yl-2-methyl-pyridin-3-yl)-8-[5-(1-hydroxy-1-methyl-ethyl)-pyridin-3-yl]-3-methyl-1,3-dihydro-imidazo[4,5-c]quinolin-2-one]
16 | 0.0227 µM | COC1CCN(c2ccc(-n3c(=O)n(C)c4cnc5ccc(-c6cncc(C(C)(C)O)c6)cc5c43)c(C)n2)C1 (stereo not shown) [Example 28.1, 8-[5-(1-Hydroxy-1-methyl-ethyl)-pyridin-3-yl]-1-[6-(3-methoxy-pyrrolidin-1-yl)-2-methyl-pyridin-3-yl]-3-methyl-1,3-dihydro-imidazo[4,5-c]quinolin-2-one]

Row | IC50 | Compound
17 | 0.0922 µM | CN(C)c1ccc(-c2ccc3ncc4c(c3c2)n(-c2cccnc2)c(=O)n4C)cn1 [Example 5.3, 8-(6-Dimethylamino-pyridin-3-yl)-3-methyl-1-pyridin-3-yl-1,3-dihydro-imidazo[4,5-c]quinolin-2-one]
18 | 0.203 µM | COc1ccc(-c2ccc3ncc4c(c3c2)n(-c2cnccc2C)c(=O)n4C)cn1 [Example 4.3, 8-(6-Methoxy-pyridin-3-yl)-3-methyl-1-(4-methyl-pyridin-3-yl)-1,3-dihydro-imidazo[4,5-c]quinolin-2-one]
19 | 0.0116 µM | Cc1ncccc1-n1c(=O)n(C)c2cnc3ccc(-c4ccc(N)nc4)cc3c21 [Example 2.7, 8-(6-Amino-pyridin-3-yl)-3-methyl-1-(2-methyl-pyridin-3-yl)-1,3-dihydro-imidazo[4,5-c]quinolin-2-one]
20 | 0.0315 µM | CCOc1ccc(-c2ccc3ncc4c(c3c2)n(-c2cccnc2F)c(=O)n4C)cn1 [Example 6.1, 8-(6-Ethoxy-pyridin-3-yl)-1-(2-fluoro-pyridin-3-yl)-3-methyl-1,3-dihydro-imidazo[4,5-c]quinolin-2-one]
21 | 0.0315 µM | CCOc1cc(-c2ccc3ncc4c(c3c2)n(-c2ccc(F)nc2C)c(=O)n4C)cnc1COC [Example 7.5, 8-(5-Ethoxy-6-methoxymethyl-pyridin-3-yl)-1-(6-fluoro-2-methyl-pyridin-3-yl)-3-methyl-1,3-dihydro-imidazo[4,5-c]quinolin-2-one]
22 | 0.0084 µM | COc1ccc(-c2ccc3ncc4c(c3c2)n(-c2cccnc2C)c(=O)n4C)cc1OC [Example 2.9, 8-(3,4-Dimethoxy-phenyl)-3-methyl-1-(2-methyl-pyridin-3-yl)-1,3-dihydro-imidazo[4,5-c]quinolin-2-one]
23 | 0.632 µM | CCOc1ncc(-c2ccc3ncc4c(c3c2)n(-c2ncccc2C)c(=O)n4C)cn1 [Example 3.1, 8-(2-Ethoxy-pyrimidin-5-yl)-3-methyl-1-(3-methyl-pyridin-2-yl)-1,3-dihydro-imidazo[4,5-c]quinolin-2-one]
24 | 0.0373 µM | CCOc1cc(-c2ccc3ncc4c(c3c2)n(-c2ccc(N3CCC3)nc2C)c(=O)n4C)cnc1COC [Example 23.5, 1-(6-Azetidin-1-yl-2-methyl-pyridin-3-yl)-8-(5-ethoxy-6-methoxymethyl-pyridin-3-yl)-3-methyl-1,3-dihydro-imidazo[4,5-c]quinolin-2-one]
25 | 0.0363 µM | Cc1ncccc1-n1c(=O)n(C)c2cnc3ccc(-c4cncc(N)c4)cc3c21 [Example 2.25, 8-(5-Amino-pyridin-3-yl)-3-methyl-1-(2-methyl-pyridin-3-yl)-1,3-dihydro-imidazo[4,5-c]quinolin-2-one]
26 | 0.0145 µM | Cc1nc(F)ccc1-n1c(=O)n(C)c2cnc3ccc(-c4cncc(C(C)(C)O)c4)cc3c21 [Example 7.8, 1-(6-Fluoro-2-methyl-pyridin-3-yl)-8-[5-(1-hydroxy-1-methyl-ethyl)-pyridin-3-yl]-3-methyl-1,3-dihydro-imidazo[4,5-c]quinolin-2-one]
27 | 0.0081 µM | CNc1ncc(-c2ccc3ncc4c(c3c2)n(-c2ccc(N3CC[C@H](O)C3)nc2C)c(=O)n4C)cc1F [Example 32.2, 8-(5-Fluoro-6-methylamino-pyridin-3-yl)-1-[6-((S)-3-hydroxy-pyrrolidin-1-yl)-2-methyl-pyridin-3-yl]-3-methyl-1,3-dihydro-imidazo[4,5-c]quinolin-2-one]
28 | 0.167 µM | Cn1c(=O)n(-c2cccnc2)c2c3cc(-c4ccc(CO)nc4)ccc3ncc21 [Example 5.1, 8-(6-Hydroxymethyl-pyridin-3-yl)-3-methyl-1-pyridin-3-yl-1,3-dihydro-imidazo[4,5-c]quinolin-2-one]
29 | 0.0153 µM | CNc1ncc(-c2ccc3ncc4c(c3c2)n(-c2ccc(N3CC(F)(F)C3)nc2C)c(=O)n4C)cn1 [Example 24.1, 1-[6-(3,3-Difluoro-azetidin-1-yl)-2-methyl-pyridin-3-yl]-3-methyl-8-(2-methylamino-pyrimidin-5-yl)-1,3-dihydro-imidazo[4,5-c]quinolin-2-one]
30 | 0.035 µM | CCNc1ncc(-c2ccc3ncc4c(c3c2)n(-c2ccc(N3CC[C@@H](O)C3)nc2C)c(=O)n4C)cc1COCC [Example 34.4, 8-(5-Ethoxymethyl-6-ethylamino-pyridin-3-yl)-1-[6-((R)-3-hydroxy-pyrrolidin-1-yl)-2-methyl-pyridin-3-yl]-3-methyl-1,3-dihydro-imidazo[4,5-c]quinolin-2-one]
31 | 0.0117 µM | CCNc1ncc(-c2ccc3ncc4c(c3c2)n(-c2ccc(N3CC[C@@H](O)C3)nc2C)c(=O)n4C)cc1C(F)(F)F [Example 34.2, 8-(6-Ethylamino-5-trifluoromethyl-pyridin-3-yl)-1-[6-((R)-3-hydroxy-pyrrolidin-1-yl)-2-methyl-pyridin-3-yl]-3-methyl-1,3-dihydro-imidazo[4,5-c]quinolin-2-one]
